Measurements taken from patent US20230218624A1 (Urovant Sciences GmbH, priority 2017, published 2023).

How the values were obtained:
[1] = target: β3-AR (Homo sapiens, UniProt P13945)
[2] = Effect of food on oral absorption; type: in vivo, human; conditions: for mean AUC0-24 with food compared to fasted state / mean Cmax with food compared to fasted state: 150 mg multiple doses, middle-aged and elderly females
[3] = target: CYP3A4 (Homo sapiens, UniProt P08684); experiment: In vitro CYP metabolism; type: in vitro ADME
[4] = test system: men and women with OAB; experiment: Phase 2b efficacy study in men and women with OAB; type: in vivo, human; conditions: for Micturitions, change from baseline in average number of micturitions, difference in LS means / Total incontinence, change from baseline in average number of episodes, difference in LS means / Urgency Episodes, change from baseline in average number of episodes, difference in LS means / Urgency incontinence, change from baseline in average number of episodes, difference in LS means / Volume voided, change from baseline in average volume per void over one diary day, difference in LS means: week 8; for Change from baseline in volume voided per micturition, difference from placebo in LS means: Week 8; for Total incontinence episodes, change from baseline Week 8, mean / Total incontinence episodes, daily number, Week 8 mean / Total incontinence episodes, difference from placebo Week 8, difference in LS means / Urgency incontinence episodes, change from baseline Week 8, mean / Urgency incontinence episodes, daily number, Week 8 mean / Urgency incontinence episodes, difference from placebo Week 8, difference in LS means: OAB wet subjects
Text: Part 2 was designed to continue to assess the safety and efficacy of concomitant dosing. […] Subjects in both Part 1 and Part 2 had the option of enrolling in a 1-year extension. Participants were required to keep a voiding diary, recording the occurrence of each strong urge, total incontinence, and urge incontinence episode. Efficacy data for Part 1 and Part 2 are summarized herein.
The total number of urgency incontinence episodes must have exceeded the total number of stress incontinence episodes for all subjects.
Conversely, a dose dependent effect on urge incontinence or total incontinence was not observed.

[5] = target: T1, β1-AR (Homo sapiens, UniProt P08588); experiment: Competition binding assay, membranes with recombinant β1-AR
T1 construct: expressed in transfected cells; membranes prepared from them

[6] = PK in patients with moderate hepatic impairment; conditions: single dose 100 mg
[7] = 50 mg with high-fat meal, non-Japanese young males
[8] = 50 mg with standard Japanese breakfast, Japanese young males
[9] = 150 mg multiple doses with food, middle-aged females, Day 14
[10] = multiple dose 150 mg, day 14, non-Japanese middle-aged females, fasted
[11] = healthy matched control subjects

T1 sequence (P08588 whole entry): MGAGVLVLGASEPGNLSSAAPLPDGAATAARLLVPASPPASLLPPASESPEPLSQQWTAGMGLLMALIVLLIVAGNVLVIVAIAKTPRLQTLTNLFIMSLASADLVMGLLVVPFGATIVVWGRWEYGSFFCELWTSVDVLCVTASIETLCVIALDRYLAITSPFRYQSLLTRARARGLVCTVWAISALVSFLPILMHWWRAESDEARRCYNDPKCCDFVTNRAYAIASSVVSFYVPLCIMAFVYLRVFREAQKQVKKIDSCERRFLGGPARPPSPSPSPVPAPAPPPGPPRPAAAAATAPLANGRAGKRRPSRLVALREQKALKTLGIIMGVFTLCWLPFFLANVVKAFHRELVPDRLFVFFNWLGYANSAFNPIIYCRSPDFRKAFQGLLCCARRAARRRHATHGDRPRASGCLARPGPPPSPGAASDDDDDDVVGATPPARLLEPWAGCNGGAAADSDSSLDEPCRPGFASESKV
Chain of β3-AR (P13945 whole entry): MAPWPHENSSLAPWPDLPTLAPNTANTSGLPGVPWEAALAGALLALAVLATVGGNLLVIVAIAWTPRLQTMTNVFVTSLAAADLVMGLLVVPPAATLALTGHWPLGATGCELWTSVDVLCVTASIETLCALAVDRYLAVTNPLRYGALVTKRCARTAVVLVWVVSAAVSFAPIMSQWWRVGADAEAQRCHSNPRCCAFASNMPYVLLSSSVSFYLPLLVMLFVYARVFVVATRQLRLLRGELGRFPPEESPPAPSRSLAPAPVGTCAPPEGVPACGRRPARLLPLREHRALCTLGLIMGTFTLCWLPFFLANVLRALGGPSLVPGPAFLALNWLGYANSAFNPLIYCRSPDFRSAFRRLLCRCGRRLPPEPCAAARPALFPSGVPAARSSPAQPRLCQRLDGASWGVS
Chain of CYP3A4 (P08684 whole entry): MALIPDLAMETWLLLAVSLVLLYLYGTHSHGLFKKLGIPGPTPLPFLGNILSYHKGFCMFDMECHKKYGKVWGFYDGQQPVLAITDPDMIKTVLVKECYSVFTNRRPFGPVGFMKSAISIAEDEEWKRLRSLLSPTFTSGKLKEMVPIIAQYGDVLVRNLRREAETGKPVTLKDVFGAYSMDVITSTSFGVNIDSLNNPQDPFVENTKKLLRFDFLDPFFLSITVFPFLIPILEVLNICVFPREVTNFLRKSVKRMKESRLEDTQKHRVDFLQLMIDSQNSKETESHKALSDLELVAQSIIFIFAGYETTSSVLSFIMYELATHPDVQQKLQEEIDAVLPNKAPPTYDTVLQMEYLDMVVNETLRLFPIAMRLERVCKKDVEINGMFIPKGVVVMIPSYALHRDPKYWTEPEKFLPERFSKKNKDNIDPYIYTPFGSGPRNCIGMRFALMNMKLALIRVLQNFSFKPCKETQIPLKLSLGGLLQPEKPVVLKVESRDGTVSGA

## O=C(Nc1ccc(C[C@@H]2CC[C@H]([C@H](O)c3ccccc3)N2)cc1)[C@@H]1CCc2nccc(=O)n21 [Vibegron, (6S)—N-[4-[[(2S,5R)-5-[(R)-hydroxy(phenyl)methyl]pyrrolidin-2-yl]methyl]phenyl]-4-oxo-7,8-dihydro-6H-pyrrolo[1,2-a]pyrimidine-6-carboxamide]
[1]
  β3-AR IC50: 0.086 mg/L
[2]; [7]
  delay in Tmax vs fasted: ~1 h
  reduction in AUC0-inf vs fasted: 46%
  reduction in Cmax vs fasted: 67%
[2]; [8]
  reduction in AUC0-inf vs fasted: 37%
  reduction in Cmax vs fasted: 52%
[2]; [9]
  reduction in mean AUC0-24 hr vs fasted: 20%
  reduction in mean Cmax vs fasted: 47%
[2]; Day 1
  mean AUC0-24 with food compared to fasted state: ~42%
  mean Cmax with food compared to fasted state: 59%
[2]; Day 14
  mean AUC0-24 with food compared to fasted state: ~20%
  mean Cmax with food compared to fasted state: 43%
[2]; [10]
  AUC0-24: 3.18 ± 0.925 µg·h/mL
  Cmax: 0.346 ± 0.139 µg/mL
  Ctrough: 0.0627 ± 0.0124 µg/mL
[3]
  CYP responsible for in vitro metabolism: CYP3A4 is the predominant CYP responsible for in vitro metabolism
[4]; 50 mg - Placebo
  Micturitions, change from baseline in average number of micturitions, difference in LS means: −0.64
  Total incontinence, change from baseline in average number of episodes, difference in LS means: −0.60
  Urgency Episodes, change from baseline in average number of episodes, difference in LS means: −0.76
  Urgency incontinence, change from baseline in average number of episodes, difference in LS means: −0.72
  Volume voided, change from baseline in average volume per void over one diary day, difference in LS means: 29.1 mL
[4]; 100 mg - 50 mg
  Micturitions, change from baseline in average number of micturitions, difference in LS means: −0.27
  Total incontinence, change from baseline in average number of episodes, difference in LS means: 0.02
  Urgency Episodes, change from baseline in average number of episodes, difference in LS means: −0.48
  Urgency incontinence, change from baseline in average number of episodes, difference in LS means: 0.01
  Volume voided, change from baseline in average volume per void over one diary day, difference in LS means: -5.69 mL
[4]; 100 mg - Placebo
  Micturitions, change from baseline in average number of micturitions, difference in LS means: −0.91
  Total incontinence, change from baseline in average number of episodes, difference in LS means: −0.58
  Urgency Episodes, change from baseline in average number of episodes, difference in LS means: −1.24
  Urgency incontinence, change from baseline in average number of episodes, difference in LS means: −0.71
  Volume voided, change from baseline in average volume per void over one diary day, difference in LS means: 23.4 mL
[4]; vibegron 3 mg
  Micturitions, change from baseline Week 8, mean: −1.56
  Micturitions, daily number, Week 8 mean: 9.35
  Micturitions, difference from placebo Week 8, difference in LS means: −0.46
  Urgency episodes, change from baseline Week 8, mean: −1.69
  Urgency episodes, daily number, Week 8 mean: 4.68
  Urgency episodes, difference from placebo Week 8, difference in LS means: −0.18
  Total incontinence episodes, change from baseline Week 8, mean: −1.56
  Total incontinence episodes, daily number, Week 8 mean: 1.38
  Total incontinence episodes, difference from placebo Week 8, difference in LS means: −0.18
  Urgency incontinence episodes, change from baseline Week 8, mean: −1.38
  Urgency incontinence episodes, daily number, Week 8 mean: 1.21
  Urgency incontinence episodes, difference from placebo Week 8, difference in LS means: −0.28
[4]; vibegron 3 mg once daily
  Change from baseline in volume voided per micturition, difference from placebo in LS means: 15.99 mL
[4]; vibegron 15 mg
  Micturitions, change from baseline Week 8, mean: −1.71
  Micturitions, daily number, Week 8 mean: 9.53
  Micturitions, difference from placebo Week 8, difference in LS means: −0.45
  Urgency episodes, change from baseline Week 8, mean: −2.35
  Urgency episodes, daily number, Week 8 mean: 4.42
  Urgency episodes, difference from placebo Week 8, difference in LS means: −0.67
  Total incontinence episodes, change from baseline Week 8, mean: −1.99
  Total incontinence episodes, daily number, Week 8 mean: 1.31
  Total incontinence episodes, difference from placebo Week 8, difference in LS means: −0.48
  Urgency incontinence episodes, change from baseline Week 8, mean: −1.81
  Urgency incontinence episodes, daily number, Week 8 mean: 1.12
  Urgency incontinence episodes, difference from placebo Week 8, difference in LS means: −0.57
[4]; vibegron 15 mg once daily
  Change from baseline in volume voided per micturition, difference from placebo in LS means: 28.23 mL
[4]; vibegron 50 mg
  Micturitions, change from baseline Week 8, mean: −1.87
  Micturitions, daily number, Week 8 mean: 9.05
  Micturitions, difference from placebo Week 8, difference in LS means: −0.64
  Urgency episodes, change from baseline Week 8, mean: −2.36
  Urgency episodes, daily number, Week 8 mean: 3.71
  Urgency episodes, difference from placebo Week 8, difference in LS means: −0.76
  Total incontinence episodes, change from baseline Week 8, mean: −2.02
  Total incontinence episodes, daily number, Week 8 mean: 1.02
  Total incontinence episodes, difference from placebo Week 8, difference in LS means: −0.60
  Urgency incontinence episodes, change from baseline Week 8, mean: −1.90
  Urgency incontinence episodes, daily number, Week 8 mean: 0.86
  Urgency incontinence episodes, difference from placebo Week 8, difference in LS means: −0.72
[4]; vibegron 50 mg once daily
  Change from baseline in volume voided per micturition, difference from placebo in LS means: 29.05 mL
[4]; vibegron 100 mg
  Micturitions, change from baseline Week 8, mean: −2.11
  Micturitions, daily number, Week 8 mean: 9.02
  Micturitions, difference from placebo Week 8, difference in LS means: −0.91
  Urgency episodes, change from baseline Week 8, mean: −2.98
  Urgency episodes, daily number, Week 8 mean: 4.22
  Urgency episodes, difference from placebo Week 8, difference in LS means: −1.24
  Total incontinence episodes, change from baseline Week 8, mean: −2.26
  Total incontinence episodes, daily number, Week 8 mean: 1.12
  Total incontinence episodes, difference from placebo Week 8, difference in LS means: −0.58
  Urgency incontinence episodes, change from baseline Week 8, mean: −2.05
  Urgency incontinence episodes, daily number, Week 8 mean: 0.84
  Urgency incontinence episodes, difference from placebo Week 8, difference in LS means: −0.71
[4]; vibegron 100 mg once daily
  Change from baseline in volume voided per micturition, difference from placebo in LS means: 23.36 mL
[5]
  binding to β1-AR: does not bind
[6]; [11]
  AUC0-inf, geometric least squares mean: 1.44 µg·h/mL
  CL/F, geometric mean (% geometric CV): 68.3 (36.0%) L/hr
  Cmax, geometric least squares mean: 0.125 µg/mL
[6]; moderate hepatic impairment
  AUC0-inf, geometric least squares mean: 1.82 µg·h/mL
  Apparent terminal t1/2, geometric mean (% geometric CV): 94.5 (8.88%) hr
  CL/F, geometric mean (% geometric CV): 56.0 (31.2%) L/hr
  Cmax, geometric least squares mean: 0.168 µg/mL
